Measurements: ChEMBL document CHEMBL3885881, “DrugMatrix”

Organism: Rattus norvegicus
Experiment: DrugMatrix - Regimen: Daily Repeat
Type: toxicity, organism-based, Sprague-Dawley
Set-up: regimen Daily Repeat, gender Male, age 6-8 weeks
Conditions: in vivo, iv, vehicle 100 % SALINE; for ABSOLUTE BASOPHIL / ABSOLUTE EOSINOPHIL / ABSOLUTE LYMPHOCYTE / ABSOLUTE MONOCYTE / ABSOLUTE SEGMENTED NEUTROPHIL / BASOPHIL / EOSINOPHIL / ERYTHROCYTE COUNT / HEMATOCRIT / HEMOGLOBIN / LEUKOCYTE COUNT / LYMPHOCYTE / MEAN CORPUSCULAR HEMOGLOBIN / MEAN CORPUSCULAR HEMOGLOBIN CONCENTRATION / MEAN CORPUSCULAR VOLUME / MONOCYTE / NUCLEATED RED BLOOD CELLS / PLATELET COUNT: tissue Blood; for ALANINE AMINOTRANSFERASE / ALBUMIN / ALKALINE PHOSPHATASE / ASPARTATE AMINOTRANSFERASE / BLOOD UREA NITROGEN / CARBON DIOXIDE / CHLORIDE / CHOLESTEROL / CREATINE PHOSPHOKINASE / CREATININE / GLUCOSE / LACTATE DEHYDROGENASE / PHOSPHORUS / POTASSIUM / SODIUM / TOTAL BILIRUBIN / TOTAL PROTEIN / URIC ACID: tissue Plasma
[1] = 25 mg/kg, 72 h, dose level Low, time 3 day
[2] = 25 mg/kg, 120 h, dose level Low, time 5 day
[3] = 160 mg/kg, 72 h, dose level High, time 3 day
[4] = 160 mg/kg, 120 h, dose level High, time 5 day

With `CN[C@H](CC(C)C)C(=O)N[C@H]1C(=O)N[C@@H](CC(N)=O)C(=O)N[C@H]2C(=O)N[C@H]3C(=O)N[C@H](C(=O)N[C@H](C(=O)O)c4cc(O)cc(O)c4-c4cc3ccc4O)[C@H](O)c3ccc(c(Cl)c3)Oc3cc2cc(c3O[C@@H]2O[C@H](CO)[C@@H](O)[C@H](O)[C@H]2O[C@H]2C[C@](C)(N)[C@H](O)[C@H](C)O2)Oc2ccc(cc2Cl)[C@H]1O` [VANCOMYCIN] the “ABSOLUTE BASOPHIL” value [1] was 0 CELLS/uL, the “ABSOLUTE EOSINOPHIL” value [1] was 39.33 CELLS/uL and the “ABSOLUTE LYMPHOCYTE” value [1] was 11516.33 CELLS/uL. For the same molecule, the “ABSOLUTE MONOCYTE” value [1] was 255.67 CELLS/uL, the “ABSOLUTE SEGMENTED NEUTROPHIL” value [1] was 1222 CELLS/uL and the BASOPHIL [1] was 0%. The EOSINOPHIL [1] was 0.33%, the “ERYTHROCYTE COUNT” value [1] was 5.26 x10E6/uL and the HEMATOCRIT [1] was 34.27%. For the same molecule, the HEMOGLOBIN [1] was 13.57 G/DL, the “LEUKOCYTE COUNT” value [1] was 13.03 x10E3/uL and the LYMPHOCYTE [1] was 88.33%. The “MEAN CORPUSCULAR HEMOGLOBIN” value [1] was 25.87 pg, the “MEAN CORPUSCULAR HEMOGLOBIN CONCENTRATION” value [1] was 39.63 G/DL and the “MEAN CORPUSCULAR VOLUME” value [1] was 65.13 fL. The MONOCYTE [1] was 2%, the “NUCLEATED RED BLOOD CELLS” value [1] was 0 /100WBC and the “PLATELET COUNT” value [1] was 1239 x10E3/uL. The “ALANINE AMINOTRANSFERASE” value [1] was 49 u/L, the ALBUMIN [1] was 4.13 G/DL and the “ALKALINE PHOSPHATASE” value [1] was 403 u/L. The “ASPARTATE AMINOTRANSFERASE” value [1] was 88 u/L, the “BLOOD UREA NITROGEN” value [1] was 17.67 mg/dL and the “CARBON DIOXIDE” value [1] was 28 mmol/L. The CHLORIDE [1] was 100.67 MEQ/L, the CHOLESTEROL [1] was 67.33 mg/dL and the “CREATINE PHOSPHOKINASE” value [1] was 365.67 u/L. For the same molecule, the CREATININE [1] was 0.22 mg/dL, the GLUCOSE [1] was 144 mg/dL and the “LACTATE DEHYDROGENASE” value [1] was 331.67 u/L. It also gave a PHOSPHORUS [1] of 12.13 mg/dL, a POTASSIUM [1] of 6.95 MEQ/L and an SODIUM [1] of 142.77 MEQ/L. For the same molecule, the “TOTAL BILIRUBIN” value [1] was 0.23 mg/dL, the “TOTAL PROTEIN” value [1] was 5.77 G/DL and the “URIC ACID” value [1] was 1.33 mg/dL. For the same molecule, the “ABSOLUTE BASOPHIL” value [2] was 0 CELLS/uL, the “ABSOLUTE EOSINOPHIL” value [2] was 41.33 CELLS/uL and the “ABSOLUTE LYMPHOCYTE” value [2] was 15492.33 CELLS/uL. For the same molecule, the “ABSOLUTE MONOCYTE” value [2] was 306.33 CELLS/uL, the “ABSOLUTE SEGMENTED NEUTROPHIL” value [2] was 660 CELLS/uL and the BASOPHIL [2] was 0%. For the same molecule, the EOSINOPHIL [2] was 0.33%, the “ERYTHROCYTE COUNT” value [2] was 5.54 x10E6/uL and the HEMATOCRIT [2] was 34.03%. For the same molecule, the HEMOGLOBIN [2] was 13.7 G/DL, the “LEUKOCYTE COUNT” value [2] was 16.5 x10E3/uL and the LYMPHOCYTE [2] was 94%. The “MEAN CORPUSCULAR HEMOGLOBIN” value [2] was 24.73 pg, the “MEAN CORPUSCULAR HEMOGLOBIN CONCENTRATION” value [2] was 40.23 G/DL and the “MEAN CORPUSCULAR VOLUME” value [2] was 61.4 fL. The MONOCYTE [2] was 1.67%, the “NUCLEATED RED BLOOD CELLS” value [2] was 0.33 /100WBC and the “PLATELET COUNT” value [2] was 1313.33 x10E3/uL. The “ALANINE AMINOTRANSFERASE” value [2] was 58.33 u/L, the ALBUMIN [2] was 4.03 G/DL and the “ALKALINE PHOSPHATASE” value [2] was 397.67 u/L. For the same molecule, the “ASPARTATE AMINOTRANSFERASE” value [2] was 92.67 u/L, the “BLOOD UREA NITROGEN” value [2] was 17.67 mg/dL and the “CARBON DIOXIDE” value [2] was 31.33 mmol/L. The CHLORIDE [2] was 100 MEQ/L, the CHOLESTEROL [2] was 76.33 mg/dL and the “CREATINE PHOSPHOKINASE” value [2] was 598 u/L. The CREATININE [2] was 0.26 mg/dL, the GLUCOSE [2] was 165.33 mg/dL and the “LACTATE DEHYDROGENASE” value [2] was 117 u/L. It also gave a PHOSPHORUS [2] of 11.5 mg/dL, a POTASSIUM [2] of 6.64 MEQ/L and an SODIUM [2] of 144.23 MEQ/L. For the same molecule, the “TOTAL BILIRUBIN” value [2] was 0.17 mg/dL, the “TOTAL PROTEIN” value [2] was 5.87 G/DL and the “URIC ACID” value [2] was 1.3 mg/dL. The “ABSOLUTE BASOPHIL” value [3] was 0 CELLS/uL, the “ABSOLUTE EOSINOPHIL” value [3] was 0 CELLS/uL and the “ABSOLUTE LYMPHOCYTE” value [3] was 10993 CELLS/uL. For the same molecule, the “ABSOLUTE MONOCYTE” value [3] was 34 CELLS/uL, the “ABSOLUTE SEGMENTED NEUTROPHIL” value [3] was 1339.67 CELLS/uL and the BASOPHIL [3] was 0%. For the same molecule, the EOSINOPHIL [3] was 0%, the “ERYTHROCYTE COUNT” value [3] was 5.96 x10E6/uL and the HEMATOCRIT [3] was 37.17%. For the same molecule, the HEMOGLOBIN [3] was 14.47 G/DL, the “LEUKOCYTE COUNT” value [3] was 12.37 x10E3/uL and the LYMPHOCYTE [3] was 88.67%. The “MEAN CORPUSCULAR HEMOGLOBIN” value [3] was 24.27 pg, the “MEAN CORPUSCULAR HEMOGLOBIN CONCENTRATION” value [3] was 38.97 G/DL and the “MEAN CORPUSCULAR VOLUME” value [3] was 62.4 fL. The MONOCYTE [3] was 0.33%, the “NUCLEATED RED BLOOD CELLS” value [3] was 0 /100WBC and the “PLATELET COUNT” value [3] was 1496.67 x10E3/uL. For the same molecule, the “ALANINE AMINOTRANSFERASE” value [3] was 47.33 u/L, the ALBUMIN [3] was 4.57 G/DL and the “ALKALINE PHOSPHATASE” value [3] was 338 u/L. The “ASPARTATE AMINOTRANSFERASE” value [3] was 86.67 u/L, the “BLOOD UREA NITROGEN” value [3] was 22 mg/dL and the “CARBON DIOXIDE” value [3] was 32 mmol/L. For the same molecule, the CHLORIDE [3] was 99 MEQ/L, the CHOLESTEROL [3] was 76 mg/dL and the “CREATINE PHOSPHOKINASE” value [3] was 389.67 u/L. For the same molecule, the CREATININE [3] was 0.21 mg/dL, the GLUCOSE [3] was 156.33 mg/dL and the “LACTATE DEHYDROGENASE” value [3] was 197.67 u/L. The PHOSPHORUS [3] was 12.37 mg/dL, the POTASSIUM [3] was 6.51 MEQ/L and the SODIUM [3] was 142.77 MEQ/L. For the same molecule, the “TOTAL BILIRUBIN” value [3] was 0.17 mg/dL, the “TOTAL PROTEIN” value [3] was 6.4 G/DL and the “URIC ACID” value [3] was 2.33 mg/dL. The “ABSOLUTE BASOPHIL” value [4] was 0 CELLS/uL, the “ABSOLUTE EOSINOPHIL” value [4] was 126 CELLS/uL and the “ABSOLUTE LYMPHOCYTE” value [4] was 16262 CELLS/uL. For the same molecule, the “ABSOLUTE MONOCYTE” value [4] was 538.67 CELLS/uL, the “ABSOLUTE SEGMENTED NEUTROPHIL” value [4] was 2873.33 CELLS/uL and the BASOPHIL [4] was 0%. The EOSINOPHIL [4] was 0.67%, the “ERYTHROCYTE COUNT” value [4] was 5.73 x10E6/uL and the HEMATOCRIT [4] was 35.13%. The HEMOGLOBIN [4] was 14.03 G/DL, the “LEUKOCYTE COUNT” value [4] was 19.8 x10E3/uL and the LYMPHOCYTE [4] was 82.33%. For the same molecule, the “MEAN CORPUSCULAR HEMOGLOBIN” value [4] was 24.47 pg, the “MEAN CORPUSCULAR HEMOGLOBIN CONCENTRATION” value [4] was 40 G/DL and the “MEAN CORPUSCULAR VOLUME” value [4] was 61.27 fL. The MONOCYTE [4] was 2.67%, the “NUCLEATED RED BLOOD CELLS” value [4] was 0 /100WBC and the “PLATELET COUNT” value [4] was 1243.33 x10E3/uL. The “ALANINE AMINOTRANSFERASE” value [4] was 47.33 u/L, the ALBUMIN [4] was 3.73 G/DL and the “ALKALINE PHOSPHATASE” value [4] was 287.33 u/L. For the same molecule, the “ASPARTATE AMINOTRANSFERASE” value [4] was 77.33 u/L, the “BLOOD UREA NITROGEN” value [4] was 29.67 mg/dL and the “CARBON DIOXIDE” value [4] was 27.67 mmol/L. The CHLORIDE [4] was 99.33 MEQ/L, the CHOLESTEROL [4] was 72.33 mg/dL and the “CREATINE PHOSPHOKINASE” value [4] was 467.33 u/L. For the same molecule, the CREATININE [4] was 0.34 mg/dL, the GLUCOSE [4] was 139 mg/dL and the “LACTATE DEHYDROGENASE” value [4] was 171.67 u/L. The PHOSPHORUS [4] was 10.27 mg/dL, the POTASSIUM [4] was 6.39 MEQ/L and the SODIUM [4] was 143.07 MEQ/L. The “TOTAL BILIRUBIN” value [4] was 0.13 mg/dL, the “TOTAL PROTEIN” value [4] was 6.03 G/DL and the “URIC ACID” value [4] was 1.4 mg/dL.
